Where two headings read alike, the source gives them in different places.
Tests used:
[1] = tested on: influenza A/Mississippi (H3N2) virus; format: in vivo, mice; conditions: for Pulmonary virus titer (log10/lung) Mean / Pulmonary virus titer (log10/lung) in mouse no. 1 / Pulmonary virus titer (log10/lung) in mouse no. 2 / Pulmonary virus titer (log10/lung) in mouse no. 3 / Pulmonary virus titer (log10/lung) in mouse no. 4 / Pulmonary virus titer (log10/lung) in mouse no. 5 / Pulmonary virus titer (log10/lung) in mouse no. 6 / Pulmonary virus titer (log10/lung) in mouse no. 7: non-ISS = SEQ ID NO:9
[2] = tested on: HSV-2; assay: Viral titer from Vero cells pre-treated with oligonucleotide, HSV-2; format: cell-based, African Green monkey (Vero cells); conditions: cells infected with HSV-2
Description: Vero cells, a cell line derived from African Green monkey kidney, were pre-treated with varying concentrations of ISS or non-ISS oligonucleotides for varying times prior to the addition of HSV-1 or HSV-2. Oligonucleotides were used at 1 μg/ml or 10 μg/ml and the cells were incubated with the oligonucleotides for 30 seconds, 10 minutes or 24 hours. Viral titers were calculated as a percent of control titer generated by cells not treated with the oligonucleotides. The data are expressed as percent of control titer.

[3] = tested on: HSV-2; assay: Viral titer after pre-treating HSV-2 virus with oligonucleotide, Vero cells; format: cell-based, African Green monkey (Vero cells)
Description: (§1) HSV-1 or HSV-2 virus was pre-treated with varying concentrations of ISS or non-ISS oligonucleotides for 10 minutes prior to adding the mixture to plated Vero cells. Oligonucleotides were used at 1 μg/ml or 10 μg/ml. Viral titers were calculated as a percent of control titer generated by cells not treated with the oligonucleotides. The data are expressed as percent of control titer.

[4] = tested on: HSV-1; assay: Viral titer after pre-treating HSV-1 virus with oligonucleotide, Vero cells; format: cell-based, African Green monkey (Vero cells)
Description: as §1

[5] = tested on: HBV; assay: Chronic HBV model: serum HBV DNA and HBsAg in STC transgenic mice; format: in vivo, STC strain transgenic mice
Description: ISS activity was tested in an animal model of chronic hepatitis. An ISS-containing phosphorothioate oligonucleotide (5′-[…]-3′) (SEQ ID NO:1), was delivered to STC strain transgenic mice, followed by measurement of HBV DNA and HBsAg production.
STC line mice were developed at Stanford University by Patricia Marion. The majority of these mice secrete HBV of the Ayw genotype (Galibert et al. (1979) Nature 281:646) to titers of 10^6-8 viral genome equivalents per ml of serum. STC mice were derived from the FVB strain, and were constructed by microinjection of HBV genomic DNA.
Approximately one month old mice were bled and tested for serum levels of HBsAg, which is predictive of viral DNA titer. A pool of 40 STC mice with approximately equal levels of HBsAg were selected and randomly assigned to four treatment groups of 10 animals each. The groups were treated as follows: • 1. 100 μg of ISS injected subcutaneously, once per week for 3 weeks (days 0, 7, 14) • 2. 100 μg of ISS injected subcutaneously, one injection at day 14 • 3. 100 ng of murine 1L-12 injected intraperitoneally on days 12, 13, and 14. • 4. PBS injected subcutaneously (days 0, 7, 14)
Blood samples were taken at day 0, 7, 14, 15 (22 hr after last IL-12 injection), 18, 28 and 35. Serum prepared from the blood samples was tested for HBV DNA by quantitative PCR (testing performed under contract by Hepadnavirus Testing, Inc.), and HBsAg using a commercially available EIA kit for HBsAg from Abbott Laboratories. Animals were sacrificed at day 35 and livers were collected for histologic analysis.

[6] = 50 μg IN Day 0 shortly before virus, lungs Day 4
[7] = 50 μg IN Day −3, virus Day 0, lungs Day 4

5′-TGACTGTGAACGTTCGAGATGA-3′ [SEQ ID NO: 1]
Pulmonary virus titer (log10/lung) Mean [1, 6]: 4.6 log10/lung
Pulmonary virus titer (log10/lung) in mouse no. 1 [1, 6]: 4 log10/lung
Pulmonary virus titer (log10/lung) in mouse no. 2 [1, 6]: 5.5 log10/lung
Pulmonary virus titer (log10/lung) in mouse no. 3 [1, 6]: 5 log10/lung
Pulmonary virus titer (log10/lung) in mouse no. 4 [1, 6]: 4.5 log10/lung
Pulmonary virus titer (log10/lung) in mouse no. 5 [1, 6]: 4.5 log10/lung
Pulmonary virus titer (log10/lung) in mouse no. 6 [1, 6]: 4.5 log10/lung
Pulmonary virus titer (log10/lung) in mouse no. 7 [1, 6]: 4.5 log10/lung
Pulmonary virus titer (log10/lung) Mean [1, 7]: 4.7 log10/lung
Pulmonary virus titer (log10/lung) in mouse no. 1 [1, 7]: 5.5 log10/lung
Pulmonary virus titer (log10/lung) in mouse no. 2 [1, 7]: 4 log10/lung
Pulmonary virus titer (log10/lung) in mouse no. 3 [1, 7]: 6 log10/lung
Pulmonary virus titer (log10/lung) in mouse no. 4 [1, 7]: 5.5 log10/lung
Pulmonary virus titer (log10/lung) in mouse no. 5 [1, 7]: 5 log10/lung
Pulmonary virus titer (log10/lung) in mouse no. 6 [1, 7]: 4 log10/lung
Pulmonary virus titer (log10/lung) in mouse no. 7 [1, 7]: 3 log10/lung
Reduction in influenza virus titer compared to PBS ([1]; IN, 50 μg/mouse before viral infection): fails to cause a satisfactory significant reduction in virus titer
Viral titer, percent of control titer ([2]; cells pre-treated 1 μg/ml, 30 sec): 101% of control titer
Viral titer, percent of control titer ([2]; cells pre-treated 1 μg/ml, 10 min): 98% of control titer
Viral titer, percent of control titer ([2]; cells pre-treated 1 μg/ml, 24 hr): 99% of control titer
Viral titer, percent of control titer ([2]; cells pre-treated 10 μg/ml, 30 sec): 101% of control titer
Viral titer, percent of control titer ([2]; cells pre-treated 10 μg/ml, 10 min): 101% of control titer
Viral titer, percent of control titer ([2]; cells pre-treated 10 μg/ml, 24 hr): 99% of control titer
Viral titer, percent of control titer ([3]; HSV-2 virus pre-treated 10 minutes with 1 μg/ml): 96% of control titer
Viral titer, percent of control titer ([3]; HSV-2 virus pre-treated 10 minutes with 10 μg/ml): 102% of control titer
Effect on viral titers from infected cells ([4]; HSV virus incubated with ISS prior to infecting cells in vitro (HSV-1 and HSV-2, Table 13)): no effect on the viral titers
Viral titer, percent of control titer ([4]; HSV-1 virus pre-treated 10 minutes with 1 μg/ml): 101% of control titer
Viral titer, percent of control titer ([4]; HSV-1 virus pre-treated 10 minutes with 10 μg/ml): 109% of control titer
Reduction of mean viral DNA titer ([5]; Group 2: single SC injection 100 μg at day 14, three days after injection): 90 fold
Serum HBsAg levels versus PBS controls ([5]; STC mice, 100 μg SC): trend towards decreased average HBsAg values
Effect on serum HBV DNA viral titer ([5]; STC mice, ISS 100 μg SC, murine IL-12 100 ng IP days 12, 13, 14): effective in reducing viral titer

Source: patent publication US20050059626A1, “Methods of preventing and treating viral infections using immunomodulatory polynucleotide sequences” (priority 2000, published 2005)
